From patent US11401270B2, “Alcoxyamino derivatives for treating pain and pain related conditions” (ESTEVE PHARMACEUTICALS, S.A., priority 2017, dated 2022)

What follows are compounds tested against Human α2δ-1 subunit of Cav2.2 calcium channel (Homo sapiens (Human), UniProt P54289) (assay: Binding Assay to Human α2δ-1 Subunit of Cav2.2 Calcium Channel). Settings: Table 1; human α2δ-1 enriched membranes, 15 nM [3H]-Gabapentin; read-out: Ki(nM) alpha2delta Hum.
Chain of Human α2δ-1 subunit of Cav2.2 calcium channel (P54289 25-1103): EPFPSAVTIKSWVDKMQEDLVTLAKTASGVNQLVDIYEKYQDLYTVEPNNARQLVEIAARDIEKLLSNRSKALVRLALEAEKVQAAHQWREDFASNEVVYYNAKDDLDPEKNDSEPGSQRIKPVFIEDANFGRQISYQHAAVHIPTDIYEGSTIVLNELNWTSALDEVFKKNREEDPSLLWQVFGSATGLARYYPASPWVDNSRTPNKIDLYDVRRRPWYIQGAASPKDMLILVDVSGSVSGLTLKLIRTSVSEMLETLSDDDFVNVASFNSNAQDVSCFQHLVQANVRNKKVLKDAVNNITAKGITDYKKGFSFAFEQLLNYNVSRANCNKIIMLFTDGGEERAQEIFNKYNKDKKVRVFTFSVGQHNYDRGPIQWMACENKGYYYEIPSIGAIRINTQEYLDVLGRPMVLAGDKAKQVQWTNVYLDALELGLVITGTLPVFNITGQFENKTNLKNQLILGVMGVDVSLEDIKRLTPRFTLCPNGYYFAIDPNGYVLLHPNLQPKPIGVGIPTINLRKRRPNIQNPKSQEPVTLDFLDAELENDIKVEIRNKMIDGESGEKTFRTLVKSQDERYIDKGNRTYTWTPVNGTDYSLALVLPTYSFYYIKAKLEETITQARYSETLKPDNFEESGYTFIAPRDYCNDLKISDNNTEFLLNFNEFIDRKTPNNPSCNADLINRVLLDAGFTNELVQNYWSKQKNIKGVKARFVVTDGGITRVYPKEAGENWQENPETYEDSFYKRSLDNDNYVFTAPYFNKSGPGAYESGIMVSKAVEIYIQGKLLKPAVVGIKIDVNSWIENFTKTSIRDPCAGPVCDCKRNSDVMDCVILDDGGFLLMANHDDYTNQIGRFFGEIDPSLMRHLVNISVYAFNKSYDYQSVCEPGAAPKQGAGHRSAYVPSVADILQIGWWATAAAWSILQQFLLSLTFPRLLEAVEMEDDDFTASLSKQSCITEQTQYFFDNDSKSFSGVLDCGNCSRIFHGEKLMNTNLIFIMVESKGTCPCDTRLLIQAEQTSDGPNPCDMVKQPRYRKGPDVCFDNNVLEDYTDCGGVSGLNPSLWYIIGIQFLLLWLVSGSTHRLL
Procedure: Binding Assay to Human α2δ-1 Subunit of Cav2.2 Calcium Channel.
NSB (non specific binding) was measured by adding 10 μM pregabalin. The binding of the test compound was measured in five different concentrations. After 60 min incubation at 27° C., binding reaction was terminated by filtering through Multiscreen GF/C (Millipore) presoaked in 0.5% polyethyleneimine in Vacuum Manifold Station, followed by 3 washes with ice-cold filtration buffer containing 50 mM Tris-HCl, pH 7.4.
Filter plates were dried at 60° C. for 1 hour and 30 μl of scintillation cocktail were added to each well before radioactivity reading.
With CNCCC(Oc1cccc(N2CCN(C)CCC2=O)c1)c1ccccc1 (centres unmarked) [Example 32, 1-Methyl-4-(3-(3-(methylamino)-1-phenylpropoxy)phenyl)-1,4-diazepan-5-one] the Ki was > 3000 nM.
With CNCCC(Oc1ccc(CN2CCN(C)CCC2=O)cc1)c1cccs1 (centres unmarked) [Example 101, 1-Methyl-4-(4-(3-(methylamino)-1-(thiophen-2-yl)propoxy)benzyl)-1,4-diazepan-5-one] the Ki was 100 to 500 nM.
CNCCC(OCc1cccc(N2CCN(C)c3ncccc3C2=O)c1)c1ccccc1 (centres unmarked) [Example 45, 1-Methyl-4-(3-((3-(methylamino)-1-phenylpropoxy)methyl)phenyl)-1,2,3,4-tetrahydro-5H-pyrido[2,3-e][1,4]diazepin-5-one] showed a Ki of 500 to 3000 nM.
Compound CNCC[C@@H](Oc1ccc(CN2CCN(C)c3ncccc3C2=O)cc1)c1cccc(F)c1 [Example 150, (R)-(4-(1-(3-fluorophenyl)-3-(methylamino)propoxy)benzyl)-1-methyl-1,2,3,4-tetrahydro-5H-pyrido[2,3-e][1,4]diazepin-5-one] has a Ki of 500 to 3000 nM.
In the case of CNCCC(Oc1cccc(N2CCN(C)c3ccccc3C2=O)c1)c1cccs1 (centres unmarked) [Example 53, 1-Methyl-4-(3-(3-(methylamino)-1-(thiophen-2-yl)propoxy)phenyl)-1,2,3,4-tetrahydro-5H-benzo[e][1,4]diazepin-5-one], the Ki is reported as 500 to 3000 nM.
CNCCC(Oc1cccc(N2CCN(C)c3ccccc3C2)c1)c1cccs1 (centres unmarked) [Example 9, N-methyl-3-(3-(1-methyl-1,2,3,5-tetrahydro-4H-benzo[e][1,4]diazepin-4-yl)phenoxy)-3-(thiophen-2-yl)propan-1-amine] was tested, and the Ki was > 3000 nM.
In the case of CCNC[C@H]1CC(=O)N(c2cccc(O[C@@H](CCNC)c3ccccc3)c2)CCN1C [Example 22, (R)-7-((ethylamino)methyl)-1-methyl-4-(3-((S)-3-(methylamino)-1-phenylpropoxy)phenyl)-1,4-diazepan-5-one], the Ki is reported as > 3000 nM.
Compound CNCC[C@@H](OCc1cccc(N2CCN(C)c3ccccc3C2=O)c1)c1cccs1 [Example 14, (R)-1-methyl-4-(3-((3-(methylamino)-1-(thiophen-2-yl)propoxy)methyl)phenyl)-1,2,3,4-tetrahydro-5H-benzo[e][1,4]diazepin-5-one] has a Ki of 100 to 500 nM.
Work on CNCCC(Oc1cccc(N2CCCN(C)CC2)c1)c1ccccc1 (centres unmarked) [Example 5, N-methyl-3-(3-(4-methyl-1,4-diazepan-1-yl)phenoxy)-3-phenylpropan-1-amine] yielded a Ki of 500 to 3000 nM.
CCNC1CCCN(c2cccc(O[C@@H](CCNC)c3cccs3)c2)C(=O)C1 (single isomer, unassigned) [Example 118a] gave a Ki of 500 to 3000 nM.
Work on CNCCC(OCc1cccc(N2CCN(C)c3cc(F)cnc3C2=O)c1)c1ccccc1 (centres unmarked) [Example 27, 8-Fluoro-1-methyl-4-(3-((3-(methylamino)-1-phenylpropoxy)methyl)phenyl)-1,2,3,4-tetrahydro-5H-pyrido[3,2-e][1,4]diazepin-5-one] yielded a Ki of 100 to 500 nM.
Compound CNCC[C@H](Oc1ccc(CN2CCN(C)c3nc(N(C)C)ccc3C2=O)cc1)c1cccs1 [Example 95, (S)-8-(dimethylamino)-1-methyl-4-(4-(3-(methylamino)-1-(thiophen-2-yl)propoxy)benzyl)-1,2,3.4-tetrahydro-5H-pyrido[2,3-e][1,4]diazepin-5-one] has a Ki of 500 to 3000 nM.
CNCC[C@@H](Oc1cccc(N2CCN(C)c3nc(C)ccc3C2=O)c1)c1ccsc1 [Example 79, (R)-1,8-dimethyl-4-(3-(3-(methylamino)-1-(thiophen-3-yl)propoxy)phenyl)-1,2,3,4-tetrahydro-5H-pyrido[2,3-e][1,4]diazepin-5-one] was tested, and the Ki was 100 to 500 nM.
With CNCCC(Oc1cccc(CN2CCN(C)c3ccccc3C2=O)c1)c1ccccc1 (centres unmarked) [Example 113, 1-Methyl-4-(3-(3-(methylamino)-1-phenylpropoxy)benzyl)-1,2,3,4-tetrahydro-5H-benzo[e][1,4]diazepin-5-one] the Ki was > 3000 nM.
CNCC[C@H](Oc1ccc(CN2CCN(C)c3c(ccnc3OC)C2=O)c(F)c1)c1ccccc1 [Example 146, (S)-4-(2-fluoro-4-(3-(methylamino)-1-phenylpropoxy)benzyl)-9-methoxy-1-methyl-1,2,3,4-tetrahydro-5H-pyrido[3,4-e][1,4]diazepin-5-one] was tested, and the Ki was > 3000 nM.
Compound CNCCC(Oc1ccc(CN2CCN(C)CCC2=O)c(F)c1)c1cccs1 (centres unmarked) [Example 122, 4-(2-Fluoro-4-(3-(methylamino)-1-(thiophen-2-yl)propoxy)benzyl)-1-methyl-1,4-diazepan-5-one] has a Ki of 100 to 500 nM.
For CNCC[C@H](OCc1cccc(N2CCN(C)c3ccccc3C2=O)c1)c1ccccc1 [Example 49], the Ki was > 3000 nM.
With CNCC[C@H](OCc1cccc(N2CCN(C)c3ccccc3C2=O)c1)c1cccs1 [Example 15, (S)-1-methyl-4-(3-((3-(methylamino)-1-(thiophen-2-yl)propoxy)methyl)phenyl)-1,2,3,4-tetrahydro-5H-benzo[e][1,4]diazepin-5-one] the Ki was > 3000 nM.
CNCCC(Oc1cccc(N2CCCN(C)CC2)c1)c1cccs1 (centres unmarked) [Example 8, N-methyl-3-(3-(4-methyl-1,4-diazepan-1-yl)phenoxy)-3-(thiophen-2-yl)propan-1-amine] showed a Ki of 100 to 500 nM.
For CNCC[C@H](OCc1cccc(N2CCN(C)c3ccccc3C2=O)c1)c1cccc(F)c1 [Example 42, (S)-4-(3-((1-(3-fluorophenyl)-3-(methylamino)propoxy)methyl)phenyl)methyl-1 2,3,4-tetrahydro-5H-benzo[e][1,4]diazepin-5-one], the Ki was 500 to 3000 nM.
CNCCC(OCc1cccc(N2CCN(C)c3ccccc3C2=O)c1)c1ccccc1F (centres unmarked) [Example 39, 4-(3-((1-(2-Fluorophenyl)-3-(methylamino)propoxy)methyl)phenyl)-1-methyl-1,2,3,4-tetrahydro-5H-benzo[e][1,4]diazepin-5-one] showed a Ki of 100 to 500 nM.
CNCC[C@@H](OCc1cccc(N2C[C@@H]3CCCN3c3ccccc3C2=O)c1)c1ccccc1 [Example 31, (S)-5-(3-(((R)-3-(methylamino)-1-phenylpropoxy)methyl)phenyl)-1.2,3,3a,4,5-hexahydro-6H-benzo[f]pyrrolo[1,2-a][1,4]diazepin-6-one] gave a Ki of 500 to 3000 nM.
For CNCCC(Oc1ccc(CN2CCN(C)c3ccccc3C2=O)cc1)c1ccccc1 (centres unmarked) [Example 112, 1-Methyl-4-(4-(3-(methylamino)-1-phenylpropoxy)benzyl)-1,2,3,4-tetrahydro-5H-benzo[e][1,4]diazepin-5-one], the Ki was > 3000 nM.
Compound CCNCC(=O)N1CCCN(c2cccc(OC(CCNC)c3cccs3)c2)CC1 (centres unmarked) [Example 11, 2-(Ethylamino)-1-(4-(3-(3-(methylamino)-1-(thiophen-2-yl)propoxy)phenyl)-1,4-diazepan-1-yl)ethan-1-one] has a Ki of 500 to 3000 nM.
For CNCCC(OCc1cccc(CN2CCN(C)c3ccccc3C2=O)c1)c1ccccc1 (centres unmarked) [Example 89, 1-Methyl-4-(3-((3-(methylamino)-1-phenylpropoxy)methyl)benzyl)-1,2,3,4-tetrahydro-5H-benzo[e][1,4]diazepin-5-one], the Ki was > 3000 nM.

Same assay, conditions: Table 2, dual compounds; human α2δ-1 enriched membranes, 15 nM [3H]-Gabapentin; read-out: Ki(nM) alpha2delta Hum
CNCC[C@@H](Oc1ccc(CN2CCN(C)c3ncccc3C2=O)cc1)c1cccc(F)c1 [Example 150, (R)-(4-(1-(3-fluorophenyl)-3-(methylamino)propoxy)benzyl)-1-methyl-1,2,3,4-tetrahydro-5H-pyrido[2,3-e][1,4]diazepin-5-one] gave a Ki of 500 to 3000 nM.
